Test results: patent US10092620B2, “Uses of cyclic peptides for treating and preventing atherosclerosis” (THE SCRIPPS RESEARCH INSTITUTE, priority 2013, dated 2018)
Non-standard residues stand in square brackets, D forms with d. 2Nal = N[C@@H](Cc1ccc2ccccc2c1)C(=O)O; d3Pal = N[C@H](Cc1cccnc1)C(=O)O; dOrn = NCCC[C@@H](N)C(=O)O; Orn = NCCC[C@H](N)C(=O)O; Dap = NC[C@H](N)C(=O)O

These substances were tested on HDL in human plasma (assay: pre-beta HDL ELISA assay: remodeling HDL in human plasma in vitro). Settings: pre-beta HDL ELISA.
Format: biochemical
Procedure: First, various cyclic peptides, including the majority of compounds shown in FIG. 2, were assessed for activities for remodeling HDL in human plasma in vitro. Unlike western blot which was used to generate data shown in FIG. 2, here a pre-beta HDL ELISA assay was used to measure pre-beta HDL levels. Results from the assay are shown in Table 1, which lists the peptides in the order of their activities in remodeling HDL.

Row | Substance | Pre-beta HDL generated (normalized level)
1 | 54 (cyclo([dW]L[dW]R[dE]Q[dE]R); SMILES CC(C)C[C@@H]1NC(=O)[C@@H](Cc2c[nH]c3ccccc23)NC(=O)[C@H](CCCNC(=N)N)NC(=O)[C@@H](CCC(=O)O)NC(=O)[C@H](CCC(N)=O)NC(=O)[C@@H](CCC(=O)O)NC(=O)[C@H](CCCNC(=N)N)NC(=O)[C@@H](Cc2c[nH]c3ccccc23)NC1=O) [compound 54] | 0.46
2 | 55 (cyclo(L[dW]L[dW]L[dS]E[dK]); SMILES CC(C)C[C@@H]1NC(=O)[C@@H](Cc2c[nH]c3ccccc23)NC(=O)[C@H](CC(C)C)NC(=O)[C@@H](Cc2c[nH]c3ccccc23)NC(=O)[C@H](CC(C)C)NC(=O)[C@@H](CCCCN)NC(=O)[C@H](CCC(=O)O)NC(=O)[C@@H](CO)NC1=O) [compound 55] | 0.35
3 | 56 (cyclo([dF]F[dY]Y[dS]R[dK][Orn]); ring closure inferred) [compound 56] | 0.31
4 | 57 (cyclo([dW]L[dW]K[dS]K); SMILES CC(C)C[C@@H]1NC(=O)[C@@H](Cc2c[nH]c3ccccc23)NC(=O)[C@H](CCCCN)NC(=O)[C@@H](CO)NC(=O)[C@H](CCCCN)NC(=O)[C@@H](Cc2c[nH]c3ccccc23)NC1=O) [compound 57] | 0.30
5 | 58 (cyclo([d3Pal]L[dW]K[dS]K[dS]K); ring closure inferred) [compound 58] | 0.27
6 | 59 (cyclo([dW]Y[dW]Y[dS]R[dS][dS]); SMILES N=C(N)NCCC[C@@H]1NC(=O)[C@@H](CO)NC(=O)[C@H](Cc2ccc(O)cc2)NC(=O)[C@@H](Cc2c[nH]c3ccccc23)NC(=O)[C@H](Cc2ccc(O)cc2)NC(=O)[C@@H](Cc2c[nH]c3ccccc23)NC(=O)[C@@H](CO)NC(=O)[C@@H](CO)NC1=O) [compound 59] | 0.24
7 | 60 (cyclo([dW][2Nal][dK]S[dK]S[dK]S); ring closure inferred) [compound 60] | 0.20
8 | 61 (cyclo([dY]A[dY]L[dK]H[dK]K); SMILES CC(C)C[C@@H]1NC(=O)[C@@H](Cc2ccc(O)cc2)NC(=O)[C@H](C)NC(=O)[C@@H](Cc2ccc(O)cc2)NC(=O)[C@H](CCCCN)NC(=O)[C@@H](CCCCN)NC(=O)[C@H](Cc2c[nH]cn2)NC(=O)[C@@H](CCCCN)NC1=O) [compound 61] | 0.19
9 | 62 (cyclo([dY]Y[dV]Y[dH]H); SMILES CC(C)[C@H]1NC(=O)[C@H](Cc2ccc(O)cc2)NC(=O)[C@@H](Cc2ccc(O)cc2)NC(=O)[C@H](Cc2c[nH]cn2)NC(=O)[C@@H](Cc2c[nH]cn2)NC(=O)[C@H](Cc2ccc(O)cc2)NC1=O) [compound 62] | 0.17
10 | 64 (cyclo([dW]F[dW]Y[dR]S[dS]H); SMILES N=C(N)NCCC[C@H]1NC(=O)[C@H](Cc2ccc(O)cc2)NC(=O)[C@@H](Cc2c[nH]c3ccccc23)NC(=O)[C@H](Cc2ccccc2)NC(=O)[C@@H](Cc2c[nH]c3ccccc23)NC(=O)[C@H](Cc2c[nH]cn2)NC(=O)[C@@H](CO)NC(=O)[C@H](CO)NC1=O) [compound 64] | 0.16
11 | 65 (cyclo([dY]G[dW]W[dN]N[dK]N); SMILES NCCCC[C@H]1NC(=O)[C@H](CC(N)=O)NC(=O)[C@@H](CC(N)=O)NC(=O)[C@H](Cc2c[nH]c3ccccc23)NC(=O)[C@@H](Cc2c[nH]c3ccccc23)NC(=O)CNC(=O)[C@@H](Cc2ccc(O)cc2)NC(=O)[C@H](CC(N)=O)NC1=O) [compound 65] | 0.11
12 | 66 (cyclo([dW][benzyltyrosine][dK]N[dN]K[dK]K); ring closure inferred) [compound 66] | 0.10
13 | 67 (cyclo([dW][homoleucine][dW]R[dE]Q[dE]R); ring closure inferred) [compound 67] | 0.08
14 | 68 (cyclo([dW]W[dF]Y[dK]H[dS]S); SMILES NCCCC[C@H]1NC(=O)[C@H](Cc2ccc(O)cc2)NC(=O)[C@@H](Cc2ccccc2)NC(=O)[C@H](Cc2c[nH]c3ccccc23)NC(=O)[C@@H](Cc2c[nH]c3ccccc23)NC(=O)[C@H](CO)NC(=O)[C@@H](CO)NC(=O)[C@H](Cc2c[nH]cn2)NC1=O) [compound 68] | 0.07
15 | 69 (cyclo([dL]W[dL]H[dE]K[dK]H); SMILES CC(C)C[C@H]1NC(=O)[C@H](Cc2c[nH]cn2)NC(=O)[C@@H](CCCCN)NC(=O)[C@H](CCCCN)NC(=O)[C@@H](CCC(=O)O)NC(=O)[C@H](Cc2c[nH]cn2)NC(=O)[C@@H](CC(C)C)NC(=O)[C@H](Cc2c[nH]c3ccccc23)NC1=O) [compound 69] | 0.07
16 | 70 (cyclo(L[dL]W[dL]K[dK]K[dK]); SMILES CC(C)C[C@@H]1NC(=O)[C@@H](CCCCN)NC(=O)[C@H](CCCCN)NC(=O)[C@@H](CCCCN)NC(=O)[C@H](CCCCN)NC(=O)[C@@H](CC(C)C)NC(=O)[C@H](Cc2c[nH]c3ccccc23)NC(=O)[C@@H](CC(C)C)NC1=O) [compound 70] | 0.06
17 | 71 (cyclo(WGWGW[dK]S[dOrn]); ring closure inferred) [compound 71] | 0.06
18 | 72 (cyclo([dL]W[dK]H[dS]H[dK]K); SMILES CC(C)C[C@H]1NC(=O)[C@H](CCCCN)NC(=O)[C@@H](CCCCN)NC(=O)[C@H](Cc2c[nH]cn2)NC(=O)[C@@H](CO)NC(=O)[C@H](Cc2c[nH]cn2)NC(=O)[C@@H](CCCCN)NC(=O)[C@H](Cc2c[nH]c3ccccc23)NC1=O) [compound 72] | 0.04
19 | 73 (cyclo(L[dW]L[dH]K[dK]E[dH]); SMILES CC(C)C[C@@H]1NC(=O)[C@@H](Cc2c[nH]c3ccccc23)NC(=O)[C@H](CC(C)C)NC(=O)[C@@H](Cc2c[nH]cn2)NC(=O)[C@H](CCC(=O)O)NC(=O)[C@@H](CCCCN)NC(=O)[C@H](CCCCN)NC(=O)[C@@H](Cc2c[nH]cn2)NC1=O) [compound 73] | 0.04
20 | 74 (cyclo([dF]F[dY]F[dK]K); SMILES NCCCC[C@@H]1NC(=O)[C@@H](CCCCN)NC(=O)[C@H](Cc2ccccc2)NC(=O)[C@@H](Cc2ccc(O)cc2)NC(=O)[C@H](Cc2ccccc2)NC(=O)[C@@H](Cc2ccccc2)NC1=O) [compound 74] | 0.04
21 | 75 (cyclo([dW]L[dW][Dap][dE]Q[dE]K); ring closure inferred) [compound 75] | 0.03
22 | 76 (cyclo([dL]W[dL]K[dK]K[dH]R); SMILES CC(C)C[C@H]1NC(=O)[C@H](CCCNC(=N)N)NC(=O)[C@@H](Cc2c[nH]cn2)NC(=O)[C@H](CCCCN)NC(=O)[C@@H](CCCCN)NC(=O)[C@H](CCCCN)NC(=O)[C@@H](CC(C)C)NC(=O)[C@H](Cc2c[nH]c3ccccc23)NC1=O) [compound 76] | 0.03
23 | 77 (cyclo(W[dF]E[dL]Y[dS]H[dOrn]); ring closure inferred) [compound 77] | 0.02
24 | 78 (cyclo([dY]L[dW]K[dK]K); SMILES CC(C)C[C@@H]1NC(=O)[C@@H](Cc2ccc(O)cc2)NC(=O)[C@H](CCCCN)NC(=O)[C@@H](CCCCN)NC(=O)[C@H](CCCCN)NC(=O)[C@@H](Cc2c[nH]c3ccccc23)NC1=O) [compound 78] | 0.01
